Experimental data: ChEMBL document CHEMBL1828593 (Bioorg Med Chem, 2011)
Activity calls are given as the source filed them. The rule behind the calls is not given here.

What was measured:
[1] = molecular target: Acetylcholine-binding protein (Lymnaea stagnalis, UniProt P58154); test: Displacement of [3H]-epibatidine from histidine-tagged Lymnaea stagnalis AChBP expressed in Sf9 cells after 1.5 hrs by liquid scintillation counting
[2] = molecular target: T1, Neuronal acetylcholine receptor subunit alpha-7 (Homo sapiens, UniProt P36544); test: Displacement of [3H]-MLA from human alpha7 nAChR expressed in human SH-SY5Y cells after 1.5 hrs by liquid scintillation counting; type: cell-based
[3] = molecular target: T2, Neuronal acetylcholine receptor; alpha4/beta2 (Homo sapiens, UniProt P17787+P43681); test: Displacement of [3H]epibatidine from human alpha4beta2 nAChR expressed in human HEK293T cells after 1.5 hrs by liquid scintillation counting; type: cell-based; details: HEK-293T
[4] = molecular target: T1, Neuronal acetylcholine receptor subunit alpha-7; test: Antagonist activity at human alpha7 nAChR expressed in Xenopus oocytes assessed as increase of acetylcholine-induced effect by electrophysiology assay; type: functional, cell-based, Oocyte
[5] = molecular target: T1, Neuronal acetylcholine receptor subunit alpha-7; test: Antagonist activity at human alpha7 nAChR expressed in Xenopus oocytes assessed as acetylcholine-induced effect at 100 uM by electrophysiology assay; type: functional, cell-based; details: Oocyte
[6] = molecular target: T2, Neuronal acetylcholine receptor; alpha4/beta2; test: Antagonist activity at human alpha4beta2 nAChR expressed in Xenopus oocytes assessed as inhibition of acetylcholine-induced effect at 100 uM by electrophysiology assay; type: functional, cell-based; details: Oocyte
[7] = molecular target: T2, Neuronal acetylcholine receptor; alpha4/beta2; test: Antagonist activity at human alpha4beta2 nAChR high affinity site expressed in Xenopus oocytes assessed as inhibition of acetylcholine-induced effect at 55 uM by electrophysiology assay; type: functional, cell-based; details: Oocyte
[8] = Displacement of [3H]epibatidine from histidine-tagged Aplysia californica AChBP expressed in Sf9 cells after 1.5 hrs by liquid scintillation counting
[9] = molecular target: T1, Neuronal acetylcholine receptor subunit alpha-7; test: Competitive inhibition of human alpha7 nAChR expressed in Xenopus oocytes by electrophysiology assay; type: cell-based; details: Oocyte
[10] = molecular target: T1, Neuronal acetylcholine receptor subunit alpha-7; test: Antagonist activity at human alpha7 nAChR low affinity site expressed in Xenopus oocytes assessed as inhibition of acetylcholine-induced effect at 10 uM by electrophysiology assay; type: functional, cell-based; details: Oocyte
[11] = molecular target: T2, Neuronal acetylcholine receptor; alpha4/beta2; test: Antagonist activity at human alpha4beta2 nAChR low affinity site expressed in Xenopus oocytes assessed as inhibition of acetylcholine-induced effect at 55 uM by electrophysiology assay; type: functional, cell-based; details: Oocyte
[12] = molecular target: T2, Neuronal acetylcholine receptor; alpha4/beta2; test: Competitive inhibition of human alpha4beta2 nAChR expressed in Xenopus oocytes by electrophysiology assay; type: cell-based; details: Oocyte
[13] = molecular target: T2, Neuronal acetylcholine receptor; alpha4/beta2; test: Antagonist activity at human alpha4beta2 nAChR high affinity site expressed in Xenopus oocytes assessed as inhibition of acetylcholine-induced effect at 10 uM by electrophysiology assay; type: functional, cell-based; details: Oocyte
[14] = molecular target: T2, Neuronal acetylcholine receptor; alpha4/beta2; test: Antagonist activity at human alpha4beta2 nAChR expressed in Xenopus oocytes assessed as increase of acetylcholine-induced effect by electrophysiology assay; type: functional, cell-based, Oocyte
[15] = molecular target: T1, Neuronal acetylcholine receptor subunit alpha-7; test: Antagonist activity at human alpha7 nAChR low affinity site expressed in Xenopus oocytes assessed as inhibition of acetylcholine-induced effect at 7 uM by electrophysiology assay; type: functional, cell-based; details: Oocyte
[16] = molecular target: T2, Neuronal acetylcholine receptor; alpha4/beta2; test: Antagonist activity at human alpha4beta2 nAChR low affinity site expressed in Xenopus oocytes assessed as inhibition of acetylcholine-induced effect at 10 uM by electrophysiology assay; type: functional, cell-based; details: Oocyte
[17] = molecular target: T2, Neuronal acetylcholine receptor; alpha4/beta2; test: Antagonist activity at human alpha4beta2 nAChR low affinity site expressed in Xenopus oocytes assessed as inhibition of acetylcholine-induced effect at 220 uM by electrophysiology assay; type: functional, cell-based; details: Oocyte
[18] = molecular target: T1, Neuronal acetylcholine receptor subunit alpha-7; test: Antagonist activity at human alpha7 nAChR low affinity site expressed in Xenopus oocytes assessed as inhibition of acetylcholine-induced effect at 20 uM by electrophysiology assay; type: functional, cell-based; details: Oocyte
[19] = molecular target: T2, Neuronal acetylcholine receptor; alpha4/beta2; test: Antagonist activity at human alpha4beta2 nAChR high affinity site expressed in Xenopus oocytes assessed as inhibition of acetylcholine-induced effect at 220 uM by electrophysiology assay; type: functional, cell-based; details: Oocyte

T2 sequence (P17787 whole entry): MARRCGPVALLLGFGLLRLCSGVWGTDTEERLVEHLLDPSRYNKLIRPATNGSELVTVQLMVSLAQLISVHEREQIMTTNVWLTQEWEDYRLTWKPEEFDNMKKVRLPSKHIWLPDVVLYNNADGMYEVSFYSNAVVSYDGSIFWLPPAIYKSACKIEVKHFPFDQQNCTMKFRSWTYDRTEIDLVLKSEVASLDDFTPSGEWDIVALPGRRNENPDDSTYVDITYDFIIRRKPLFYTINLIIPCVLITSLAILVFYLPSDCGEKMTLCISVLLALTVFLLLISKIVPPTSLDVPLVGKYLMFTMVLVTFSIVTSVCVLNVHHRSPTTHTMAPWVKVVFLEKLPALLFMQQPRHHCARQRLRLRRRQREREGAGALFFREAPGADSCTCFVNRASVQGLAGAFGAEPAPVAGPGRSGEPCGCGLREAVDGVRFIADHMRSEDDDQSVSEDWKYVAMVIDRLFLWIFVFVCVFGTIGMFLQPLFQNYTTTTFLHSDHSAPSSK
T2 sequence (P43681 whole entry): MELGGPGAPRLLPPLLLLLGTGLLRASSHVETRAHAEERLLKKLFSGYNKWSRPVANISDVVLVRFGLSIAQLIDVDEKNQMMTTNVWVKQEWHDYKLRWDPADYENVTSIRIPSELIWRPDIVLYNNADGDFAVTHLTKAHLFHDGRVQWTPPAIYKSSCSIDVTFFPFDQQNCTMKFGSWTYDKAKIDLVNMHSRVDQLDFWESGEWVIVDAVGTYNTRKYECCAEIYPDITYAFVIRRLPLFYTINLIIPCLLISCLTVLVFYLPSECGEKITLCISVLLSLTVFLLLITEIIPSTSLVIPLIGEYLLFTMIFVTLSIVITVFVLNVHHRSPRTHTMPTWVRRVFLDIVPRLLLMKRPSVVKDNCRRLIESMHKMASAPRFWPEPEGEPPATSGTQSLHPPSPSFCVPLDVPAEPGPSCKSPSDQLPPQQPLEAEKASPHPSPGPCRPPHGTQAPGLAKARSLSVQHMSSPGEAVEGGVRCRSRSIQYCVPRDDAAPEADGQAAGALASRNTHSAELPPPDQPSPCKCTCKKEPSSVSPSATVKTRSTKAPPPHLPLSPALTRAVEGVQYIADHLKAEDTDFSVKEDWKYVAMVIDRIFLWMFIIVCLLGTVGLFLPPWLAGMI
Acetylcholine-binding protein, sequence (P58154 whole entry): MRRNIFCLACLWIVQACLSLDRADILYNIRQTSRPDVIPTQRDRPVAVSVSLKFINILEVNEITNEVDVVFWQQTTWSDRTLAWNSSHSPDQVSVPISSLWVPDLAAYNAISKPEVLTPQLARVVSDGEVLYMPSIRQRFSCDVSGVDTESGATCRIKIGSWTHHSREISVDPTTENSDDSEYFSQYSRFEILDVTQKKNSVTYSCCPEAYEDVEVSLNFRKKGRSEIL
T1 sequence (P36544 whole entry): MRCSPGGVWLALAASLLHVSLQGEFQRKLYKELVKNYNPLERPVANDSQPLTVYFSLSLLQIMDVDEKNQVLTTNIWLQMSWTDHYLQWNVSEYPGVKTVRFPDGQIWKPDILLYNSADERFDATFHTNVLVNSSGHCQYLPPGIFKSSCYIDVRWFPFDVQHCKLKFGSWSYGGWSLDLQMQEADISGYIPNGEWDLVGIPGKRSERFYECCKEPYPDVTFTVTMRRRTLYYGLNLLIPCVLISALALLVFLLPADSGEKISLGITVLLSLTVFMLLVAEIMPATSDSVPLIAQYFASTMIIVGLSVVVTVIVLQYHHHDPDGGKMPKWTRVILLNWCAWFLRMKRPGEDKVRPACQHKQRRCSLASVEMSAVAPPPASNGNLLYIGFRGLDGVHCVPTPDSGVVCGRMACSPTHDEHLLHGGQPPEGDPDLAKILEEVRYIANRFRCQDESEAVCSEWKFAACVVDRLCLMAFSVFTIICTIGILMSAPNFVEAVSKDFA

Row | SMILES | Ki [1] | Ki [2] | Activity [3] | other results
1 | C[N+]1(CCO)Cc2sc3ccc(Cl)cc3c2C1 (stereo not drawn) | 1 µM | 20 µM | inactive | –
2 | OC(COCc1ccc(Cl)cc1)CN1CCc2ccccc2C1 (stereo not drawn) | 1.58 µM | ≥ 31.6 µM | inactive | –
3 | NCc1ccsc1C(O)c1ccccc1 (stereo not drawn) | 25.1 µM | ≥ 31.6 µM | inactive | –
4 | CC1CCN(CCc2cc3ccccc3[nH]2)CC1 | 10 µM | ≥ 31.6 µM | inactive | EC50 [4]: 10 µM
5 | O=C1CN(Cc2ccccc2)Cc2ccsc21 | ≥ 31.6 µM | ≥ 31.6 µM | inactive | inhibition [5]: inactive; inhibition [6]: inactive
6 | CSc1[nH]c2ccccc2c1CN1CCCCC1 | 1.58 µM | 3.98 µM | inactive | –
7 | CC1CC2(CCCCC2)NCc2ccccc21 (stereo not drawn) | 0.631 µM | ≥ 31.6 µM | inactive | –
8 | Cc1ccc(C(OCC2CCC[N+](C)(C)C2)c2ccccc2)cc1 (stereo not drawn) | 0.501 µM | 10 µM | inactive | –
9 | CC(Cc1ccccc1)NC1CN2CCC1CC2 (stereo not drawn) | 3.16 µM | ≥ 31.6 µM | inactive | –
10 | CC1CC[N+]2(C)CCc3c([nH]c4ccccc34)C2C1 (stereo not drawn) | 0.631 µM | ≥ 31.6 µM | inactive | –
11 | c1ccc2c3c([nH]c2c1)C1CCCN1CC3 (stereo not drawn) | 1.26 µM | ≥ 31.6 µM | inactive | –
12 | ClC1(CNc2ccccc2)CCN(Cc2ccccc2)CC1 | 1.58 µM | ≥ 31.6 µM | inactive | –
13 | c1ccc(C2CCN(CCc3cc4ccccc4[nH]3)CC2)cc1 | 1 µM | ≥ 31.6 µM | inactive | inhibition [7]: 25%; pKi [8]: 5.3; inhibition [9]: Active; EC50 [4]: 10 µM; inhibition [10]: Active; inhibition [11]: 75%; inhibition [12]: inactive
14 | CC(C)(C)c1ccc(C(CN)c2ccccc2)cc1 (stereo not drawn) | ≥ 31.6 µM | ≥ 31.6 µM | inactive | –
15 | c1ccc2c(c1)CCc1ccccc1C2NC12CC3CC(CC(C3)C1)C2 | ≥ 31.6 µM | ≥ 31.6 µM | inactive | inhibition [5]: inactive; inhibition [6]: inactive
16 | CN1CCN(Cc2ccccc2Sc2ccccc2)CC1 | 1.58 µM | 20 µM | inactive | –
17 | NCC(OCc1ccc(Cl)cc1)c1ccccc1 (stereo not drawn) | 6.31 µM | ≥ 31.6 µM | inactive | inhibition [13]: 13%; EC50 [14]: 10 µM; pKi [8]: 4.9; inhibition [9]: Active; inhibition [15]: Active; inhibition [16]: 87%; inhibition [12]: inactive
18 | Cc1ccccc1C(OCCN1CCCCC1)c1ccccc1 (stereo not drawn) | 0.316 µM | 20 µM | inactive | –

Row | SMILES | Ki [1] | Ki [2] | Activity [3] | other results
19 | CC(C)(C)C(N)/C=C/c1ccc(Cl)cc1Cl (stereo not drawn) | 12.6 µM | ≥ 31.6 µM | inactive | –
20 | CN1CC2Cc3ccccc3C1c1ccccc12 (stereo not drawn) | 0.794 µM | ≥ 31.6 µM | inactive | EC50 [14]: 10 µM
21 | NCC(c1ccc(Cl)cc1)c1ccc(Sc2ccccc2)cc1 (stereo not drawn) | ≥ 31.6 µM | ≥ 31.6 µM | inactive | EC50 [4]: 10 µM; inhibition [12]: inactive
22 | CC1(C)C=C(c2cc(Br)c(C3=CC(C)(C)NC(C)(C)C3)s2)CC(C)(C)N1 | 0.398 µM | ≥ 31.6 µM | inactive | –
23 | c1ccc2c(CN3CCCCC3)csc2c1 | 1 µM | 15.8 µM | inactive | –
24 | O=C1COc2ccccc2N1CCCCN1CCc2ccccc2C1 | 0.501 µM | ≥ 31.6 µM | inactive | –
25 | CCN(CC)Cc1csc2ccc(Cl)cc12 | 3.98 µM | ≥ 31.6 µM | inactive | –
26 | CC(=O)OCC[N+](C)(C)C [ACETYLCHOLINE] | 6.31 µM | – | – | pKi [8]: 4.3
27 | Cc1ccc(C(c2ccc(C)cc2)N(C)C)cc1 | ≥ 31.6 µM | ≥ 31.6 µM | inactive | EC50 [4]: 10 µM
28 | c1ccc(C2CCN(CCc3nc4ccccc4[nH]3)CC2)cc1 | 2.51 µM | ≥ 31.6 µM | inactive | EC50 [4]: 10 µM
29 | c1ccc(Sc2ccccc2CN2CCCC2)cc1 | 0.2 µM | 15.8 µM | inactive | –
30 | CN1CCC(c2noc3ccccc23)CC1 | 12.6 µM | ≥ 31.6 µM | inactive | –
31 | NCC(OCc1ccc(Cl)cc1Cl)c1ccccc1 (stereo not drawn) | 5.01 µM | ≥ 31.6 µM | inactive | EC50 [14]: 10 µM
32 | C=CC1CN2CCC1CC2c1[nH]c2ccccc2c1CCO (stereo not drawn) | 0.398 µM | ≥ 31.6 µM | inactive | –
33 | c1ccc(CN2CCN(CCCSc3cc4ccccc4[nH]3)CC2)cc1 | 2 µM | ≥ 31.6 µM | inactive | –
34 | c1ccc2c(c1)CC1CNC2c2ccccc21 (stereo not drawn) | 12.6 µM | ≥ 31.6 µM | inactive | EC50 [14]: 10 µM
35 | CC1NCCOC1c1ccc(Cl)cc1 (stereo not drawn) | 12.6 µM | ≥ 31.6 µM | inactive | inhibition [17]: 81%; inhibition [18]: Active; EC50 [4]: 10 µM; inhibition [19]: 19%
36 | NCC(c1ccccc1)c1ccc(-c2ccccc2)cc1 (stereo not drawn) | 12.6 µM | ≥ 31.6 µM | inactive | EC50 [14]: 10 µM
